{
  "source": "patent EP1935986B1",
  "about": "“Luminogenic and fluorogenic compounds and methods to detect molecules or conditions” (priority 2005, dated 2006)",
  "key": {"[1]": {"tested_on": "CYP3A"}, "[2]": {"target": "T1, GST M1-1 (Homo sapiens, UniProt P09488, K173N)", "T1 construct": "purchased Sigma", "T1 sequence (P09488 whole entry K173N)": "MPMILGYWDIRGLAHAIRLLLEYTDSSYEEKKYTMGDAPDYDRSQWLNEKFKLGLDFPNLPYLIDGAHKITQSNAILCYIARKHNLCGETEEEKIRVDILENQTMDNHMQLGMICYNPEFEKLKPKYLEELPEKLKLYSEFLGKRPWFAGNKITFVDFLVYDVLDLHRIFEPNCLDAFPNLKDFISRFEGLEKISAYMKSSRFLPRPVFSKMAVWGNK", "test": "Bioluminogenic GST assay with acetyl luciferin", "assay_type": "biochemical", "conditions": "versus GST A1-1; result in words"}, "[3]": {"tested_on": "luciferase", "test": "No-enzyme control: activity of luciferase towards the luciferin derivative (background luminescence)"}, "[4]": {"target": "T2, CYP4F12 (Homo sapiens, UniProt Q9HCS2)", "T2 construct": "purchased Discovery Labware (BD/Gentest); host or cells: insect cell expression system (membrane fractions)", "T2 sequence (Q9HCS2 1-524)": "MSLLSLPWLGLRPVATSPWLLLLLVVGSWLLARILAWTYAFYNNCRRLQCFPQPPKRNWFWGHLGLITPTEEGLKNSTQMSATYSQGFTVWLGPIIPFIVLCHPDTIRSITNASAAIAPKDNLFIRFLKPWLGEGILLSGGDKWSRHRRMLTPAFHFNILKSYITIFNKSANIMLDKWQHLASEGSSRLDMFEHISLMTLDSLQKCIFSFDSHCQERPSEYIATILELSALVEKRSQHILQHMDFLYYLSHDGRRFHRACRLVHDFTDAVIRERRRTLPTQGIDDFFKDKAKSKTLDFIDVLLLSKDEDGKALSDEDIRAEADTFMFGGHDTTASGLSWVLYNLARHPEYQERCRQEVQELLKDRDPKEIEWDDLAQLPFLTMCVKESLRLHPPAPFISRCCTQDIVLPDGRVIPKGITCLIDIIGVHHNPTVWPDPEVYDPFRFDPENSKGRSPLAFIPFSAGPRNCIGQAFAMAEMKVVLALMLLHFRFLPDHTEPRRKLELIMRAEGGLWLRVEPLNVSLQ", "test": "Two-step luminescent P450 screen of luciferin derivatives", "assay_type": "biochemical", "conditions": "result in words", "experimental": "P450s are Supersomes™ purchased from Discovery Labware (BD/Gentest). […] HLM is human liver microsomes.\n1X substrate concentration: 50 µM."}, "[5]": {"target": "T3, QuantiLum Luciferase (Photinus pyralis, UniProt P08659)", "T3 construct": "purchased Promega Corporation E170", "T3 sequence (P08659 whole entry)": "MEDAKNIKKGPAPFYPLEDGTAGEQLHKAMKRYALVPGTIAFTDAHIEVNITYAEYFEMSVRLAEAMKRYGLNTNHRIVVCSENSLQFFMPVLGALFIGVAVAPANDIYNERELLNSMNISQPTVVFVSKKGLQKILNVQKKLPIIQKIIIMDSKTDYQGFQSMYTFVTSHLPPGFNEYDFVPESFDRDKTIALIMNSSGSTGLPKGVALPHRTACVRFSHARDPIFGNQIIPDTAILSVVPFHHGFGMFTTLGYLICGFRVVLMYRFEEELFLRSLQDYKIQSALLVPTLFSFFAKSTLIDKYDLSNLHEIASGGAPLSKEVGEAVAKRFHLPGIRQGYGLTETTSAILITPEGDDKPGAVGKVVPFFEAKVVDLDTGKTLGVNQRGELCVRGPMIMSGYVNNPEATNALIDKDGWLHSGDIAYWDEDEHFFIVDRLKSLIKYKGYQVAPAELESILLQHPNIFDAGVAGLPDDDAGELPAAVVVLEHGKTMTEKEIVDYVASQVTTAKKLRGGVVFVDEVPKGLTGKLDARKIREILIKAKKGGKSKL", "test": "Scaffolds: light emission of luciferin derivatives with QuantiLum luciferase alone, + Co A, + DTT, + Co A and DTT", "assay_type": "biochemical, firefly"}, "[6]": {"target": "T2, CYP4F12", "conditions": "previously shown (Cali, 2005b); cited from earlier work"}, "[7]": {"target": "CYP3A4 (Homo sapiens, UniProt P08684)", "sequence (P08684 2-503 limits assumed)": "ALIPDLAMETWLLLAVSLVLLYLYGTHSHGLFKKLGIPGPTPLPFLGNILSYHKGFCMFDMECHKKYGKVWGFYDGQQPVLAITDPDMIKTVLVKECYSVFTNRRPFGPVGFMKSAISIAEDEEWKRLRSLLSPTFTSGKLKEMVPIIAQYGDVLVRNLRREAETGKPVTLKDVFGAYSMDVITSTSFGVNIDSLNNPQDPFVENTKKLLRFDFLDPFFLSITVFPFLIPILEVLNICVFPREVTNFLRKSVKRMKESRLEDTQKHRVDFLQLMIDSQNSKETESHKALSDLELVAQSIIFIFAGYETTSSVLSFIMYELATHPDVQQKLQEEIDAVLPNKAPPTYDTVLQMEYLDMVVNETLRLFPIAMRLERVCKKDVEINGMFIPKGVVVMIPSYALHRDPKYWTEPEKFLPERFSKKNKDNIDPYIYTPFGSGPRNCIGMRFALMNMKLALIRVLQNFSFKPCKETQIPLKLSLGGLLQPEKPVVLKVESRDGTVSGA", "test": "Two-step luminescent P450 screen of luciferin derivatives", "conditions": "result in words"}, "[8]": {"target": "CYP3A7 (Homo sapiens, UniProt P24462)", "sequence (P24462 whole entry)": "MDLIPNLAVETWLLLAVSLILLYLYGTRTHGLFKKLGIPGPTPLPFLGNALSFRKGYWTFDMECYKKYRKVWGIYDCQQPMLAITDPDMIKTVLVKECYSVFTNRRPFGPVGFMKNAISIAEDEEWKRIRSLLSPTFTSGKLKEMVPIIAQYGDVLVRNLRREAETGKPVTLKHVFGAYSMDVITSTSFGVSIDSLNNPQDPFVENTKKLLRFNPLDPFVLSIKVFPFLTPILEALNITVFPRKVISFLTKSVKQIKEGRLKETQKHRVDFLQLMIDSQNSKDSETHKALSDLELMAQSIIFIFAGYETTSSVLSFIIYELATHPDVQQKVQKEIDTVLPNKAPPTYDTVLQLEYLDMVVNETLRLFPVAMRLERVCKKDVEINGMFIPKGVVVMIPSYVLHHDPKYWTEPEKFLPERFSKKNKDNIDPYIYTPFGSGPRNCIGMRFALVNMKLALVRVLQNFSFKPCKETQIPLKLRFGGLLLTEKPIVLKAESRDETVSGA", "test": "Two-step luminescent P450 screen of luciferin derivatives", "conditions": "result in words"}, "[9]": {"target": "T3, QuantiLum Luciferase", "test": "Emission spectra of luciferase reactions with luciferin, 5'-fluoroluciferin, 7'-fluoroluciferin", "assay_type": "biochemical, firefly", "conditions": "reagent pH 7.4", "experimental": "All compounds except fluoroluciferin and ATP were purchased from Sigma Chemical. ATP was purchased from Amersham/Invitrogen.\nSpectra were measured using 0.5s integration with 1 nm increments on a Spex Fluorolog."}, "[10]": {"target": "T3, QuantiLum Luciferase", "test": "pH titration of firefly luciferase reaction with 7'-fluoroluciferin", "assay_type": "biochemical"}, "[11]": {"target": "T3, QuantiLum Luciferase", "test": "ATP titration of firefly luciferase reactions with luciferin and fluoroluciferins", "assay_type": "biochemical", "conditions": "result in words", "experimental": "All compounds except 5'-fluoroluciferin and DTT were purchased from Sigma Chemical. To some of this reagent 5 mM ATP (Amersham/Invitrogen) was added, then serially diluted by half-logs to 0.05 mM. Reactions were initiated by adding equal volumes (0.1 ml) of reagent and DMEM medium (Gibco/Invitrogen) containing 0.1% Prionex® (Pentapharm) and 1.4 x 10-5 mg/ml QuantiLum™ Luciferase (Promega Corporation).\nFor ATP titrations for 7'-fluoroluciferin, reagent was created containing 200 mM HEPES, 200 mM PIPES, 1 mM CDTA, 0.5% Tergitol NP-9, 0.03% Benzyl dodecyldimethyl ammonium bromide, 30 mM thiourea, 10 mM magnesium sulfate, and 0.15 mM 7'-fluoroluciferin. This solution was separated into 3 parts and pH of the reagents were 7.4, 7.2 and 6.7. To some of this reagent, 10 mM ATP (Amersham/Invitrogen) was added. The ATP was serially diluted by quarter-logs from 10 mM to 0.32 mM.\nReactions were initiated by adding equal volumes (0.03 ml) of reagent and DMEM medium (Gibco/Invitrogen) containing 0.1% Prionex® (Pentapharm) and 1.4 x 10-5 mg/ml QuantiLum™ Luciferase (Promega Corporation).\nLuminescence was measured for 0.5 seconds per well using Berthold Orion luminometer."}},
  "data": [
    {"smiles": "CC(=O)N1CCN(c2ccc(OCC3COC(Cn4ccnc4)(c4ccc(Cl)cc4Cl)O3)cc2)CC1", "note": "(stereo not drawn) [ketoconazole]", "values": [
      {"measurement": "CYP3A-dependent luminescence in human hepatocytes", "setting": "[1]", "value": "inhibition by ketoconazole of both basal and rifampicin-induced activity"}
    ]},
    {"smiles": "COC(=O)[C@H]1CSC(c2ccc3cc(Oc4ccc(C(F)(F)F)cc4[N+](=O)[O-])ccc3n2)=N1", "note": "[GST-4, Methyl 6-(2-nitro-4-trifluoromethyl-phenoxy)quinolinyl-luciferin ester]", "values": [
      {"measurement": "substrate preference among GSTs in a light generating reaction", "setting": "[2]", "value": "better substrate for GST M1-1"}
    ]},
    {"smiles": "O=C(O)[C@H]1CSC(c2nc3ccc(OCc4ccccc4)cc3s2)=N1", "note": "[luciferin 6-benzyl ether, reference compound]", "values": [
      {"measurement": "background luminescence", "setting": "[3]; on a BMG luminometer, minus P450", "value": "about 5000 RLU"},
      {"measurement": "background luminescence (minus P450 control samples)", "setting": "[3]; result in words", "value": "high background luminescence"},
      {"measurement": "P450 activity / cross reactivity with the derivative as substrate", "setting": "[4]", "value": "cross reacted"},
      {"measurement": "light emission values", "setting": "[5]; Derivative Conc. 1.07, Alone", "value": 29234},
      {"measurement": "light emission values", "setting": "[5]; Derivative Conc. 1.07, Co A", "value": 50144},
      {"measurement": "light emission values", "setting": "[5]; Derivative Conc. 1.07, Co A + DTT", "value": 51799},
      {"measurement": "light emission values", "setting": "[5]; Derivative Conc. 1.07, DTT", "value": 57066},
      {"measurement": "light emission values", "setting": "[5]; Derivative Conc. 3.13, Alone", "value": 32994},
      {"measurement": "light emission values", "setting": "[5]; Derivative Conc. 3.13, Co A", "value": 55778},
      {"measurement": "light emission values", "setting": "[5]; Derivative Conc. 3.13, Co A + DTT", "value": 80626},
      {"measurement": "light emission values", "setting": "[5]; Derivative Conc. 3.13, DTT", "value": 86445},
      {"measurement": "light emission values", "setting": "[5]; Derivative Conc. 6.25, Alone", "value": 38838},
      {"measurement": "light emission values", "setting": "[5]; Derivative Conc. 6.25, Co A", "value": 58288},
      {"measurement": "light emission values", "setting": "[5]; Derivative Conc. 6.25, Co A + DTT", "value": 105912},
      {"measurement": "light emission values", "setting": "[5]; Derivative Conc. 6.25, DTT", "value": 100044},
      {"measurement": "light emission values", "setting": "[5]; Derivative Conc. 12.5, Alone", "value": 40486},
      {"measurement": "light emission values", "setting": "[5]; Derivative Conc. 12.5, Co A", "value": 57996},
      {"measurement": "light emission values", "setting": "[5]; Derivative Conc. 12.5, Co A + DTT", "value": 97371},
      {"measurement": "light emission values", "setting": "[5]; Derivative Conc. 12.5, DTT", "value": 94861},
      {"measurement": "light emission values", "setting": "[5]; Derivative Conc. 25, Alone", "value": 40093},
      {"measurement": "light emission values", "setting": "[5]; Derivative Conc. 25, Co A", "value": 53097},
      {"measurement": "light emission values", "setting": "[5]; Derivative Conc. 25, Co A + DTT", "value": 90306},
      {"measurement": "light emission values", "setting": "[5]; Derivative Conc. 25, DTT", "value": 84034},
      {"measurement": "light emission values", "setting": "[5]; Derivative Conc. 50, Alone", "value": 30609},
      {"measurement": "light emission values", "setting": "[5]; Derivative Conc. 50, Co A", "value": 38349},
      {"measurement": "light emission values", "setting": "[5]; Derivative Conc. 50, Co A + DTT", "value": 98716},
      {"measurement": "light emission values", "setting": "[5]; Derivative Conc. 50, DTT", "value": 80001},
      {"measurement": "light emission values", "setting": "[5]; Derivative Conc. 100, Alone", "value": 31581},
      {"measurement": "light emission values", "setting": "[5]; Derivative Conc. 100, Co A", "value": 33199},
      {"measurement": "light emission values", "setting": "[5]; Derivative Conc. 100, Co A + DTT", "value": 64460},
      {"measurement": "light emission values", "setting": "[5]; Derivative Conc. 100, DTT", "value": 54592},
      {"measurement": "reaction with CYP4F12", "setting": "[6]", "value": "react also with CYP4F12"},
      {"measurement": "competition at the substrate binding sites on CYP3A4", "setting": "[7]", "value": "only competitive at 1 site"},
      {"measurement": "P450 activity / selectivity with the derivative as substrate", "setting": "[8]", "value": "cross reacted significantly"}
    ]},
    {"smiles": "O=C(O)[C@H]1CSC(c2nc3ccc(O)c(F)c3s2)=N1", "note": "[7'-fluoroluciferin]", "values": [
      {"measurement": "λmax of luminescence, red-shifted from regular luciferin", "setting": "[9]", "value": "approximately 21 nm"},
      {"measurement": "pH optima for the firefly luciferase reaction", "setting": "[10]", "value": "~7.5", "unit": "pH"},
      {"measurement": "ATP requirement of the luciferase reaction compared with luciferin", "setting": "[11]", "value": "requirement for ATP is much higher"}
    ]}
  ]
}
